Values quoted from earlier work in US20210030918A1, “COATING OF FIBERS WITH DIPEPTIDE NANOSTRUCTURES USING ULTRASONIC CAVITATION” (Ramot at Tel-Aviv University Ltd., priority 2019, published 2021).

Structure (SMILES): COc1cc(/C=C/C(=O)CC(=O)/C=C/c2ccc(O)c(OC)c2)ccc1O [Curcumin, (1E,6E)-1,7-bis(4-hydroxy-3-methoxyphenyl)-1,6-heptadiene-3,5-dione]
- aqueous solubility: poor
